# Test results as given in patent US7119213B2, “Pharmacologically active isolated or purified dauer pheromone compound for controlling aging and stress and method for isolating and characterizing the same” (priority 2002, dated 2006).
# Test system: C. elegans
# Assay: Dauer inducing activity assay (dauer test on worms grown in S medium)
# Format: in vivo
# Procedure: To examine whether this ethanol extract (A) can induce dauer larva phase, dauer test is performed on the worms that had been grown in the S medium.
# Briefly, the dried A was dissolved in double distilled water and extracted with the equal volume of ethyl acetate. This extraction procedure was repeated 5 times.
# After confirming the dauer inducing activity of B, extracts obtained by the above-described process are loaded onto a silica-gel absorption column which has been equilibrated with hexane: ethyl acetate: methanol=7:7:1. An active form of dauer pheromone (C) that were adsorbed onto the column was eluted with methanol.
# To further purify C, HPLC separation is carried out using amine column. Briefly, the fraction C is dissolved in methanol and diluted with double distilled water (MeOH: ddH2O=1:1). This solution containing C is loaded onto the amine column, which is equilibrated with isopropanol solution (isopropanol: water=1:1). A dauer pheromone fraction bound to the column (Fraction D) was eluted with a gradient solution of the same solvent.
# Table 5 outlines the result of dauer inducing assay using the active fractions D from the amine column chromatography. Finally, a dauer pheromone (E) is completely isolated and purified refined by size exclusion column chromatography using methanol as an eluent solution.
# The pure dauer pheromone characterized by the above described procedures is defined as the structural formula I, and its chemical formula is 6-(3,5-dihydroxy-6-methyl-tetrahydro-pyran-2-yloxy)-heptanoic acid or its sodium salt.
structure (smiles),measurement,setting,value
"CC(CCCCC(=O)O)OC1OC(C)C(O)CC1O (stereo not drawn) [W251 column fraction (purified form), 6-(3,5-dihydroxy-6-methyl-tetrahydro-pyran-2-yloxy)-heptanoic acid]",Formation of dauer larva stage (%),dauer test on C. elegans,100%
same,Population in dauer larva stage,number of worms in dauer larva stage in the dauer test,62
same,Induction of dauer phase (in words),pure pheromone added onto the media,markedly induce the worm into dauer phase
